From US10183082B2, “PET probes of radiofluorinated carboximidamides for IDO-targeted imaging” (H. LEE MOFFITT CANCER CENTER AND RESEARCH INSTITUTE, INC., priority 2014, dated 2019)

Columns and labels:
IDO = IDO (Homo sapiens, UniProt P14902); assay: Inhibition of IFN-γ induced IDO activity in Hela cells; type: cell-based; details: Hela cell lines (FIGS. 7A, 7B)
Hela cells = assay: alamarBlue cell proliferation (cytotoxicity) assay, Hela; type: cell-based; details: 100 nM, 2 days incubation
Description: (§1) FIGS. 6A-6C. Cell viability study of HuMEC cells, MCA-MB-231 cells, and Hela cells, respectively, incubated with 100 nM of IDO inhibitors. After 2 days of incubation, alamarBlue cell viability reagent was added to cells and the fluorescence intensity (arbitrary fluorescent units) was measured after 3 hours incubation (n=4). Cytotoxicity of four IDO inhibitors toward different cell lines was evaluated with a cell proliferation assay using alamarBlue cell viability reagent. Hela cells were cultured in EMEM medium (ATCC 30-2003) containing 10% FBS, MDA-MB-231 and MCF-7 were cultured in RPMI-1640 Medium containing 10% FBS, while HuMEC cells were cultured in HuMEC medium (ATCC 12752-010). The cell proliferation assay included the following: harvesting of the cells by trypsinization and adding culture media to adjust to 10000 cell/mL; add 0.2 mL of cell suspension to each well and incubated at 37° C. in 5% CO2 atmosphere for 2 days; adding 1 μL of inhibitor solution (0.1 mM in DMSO) into growth media (1 mL) to get growth media w/inhibitor; aspirating spent growth medium from the wells and adding 200 μL of growth media w/ inhibitors and incubating at 37° C. in 5% CO2 atmosphere for 2 days; adding 20 μL of the alamarBlue (Invitrogen) into each well; incubating for addition 3 hours at 37° C. in 5% CO2 atmosphere; and reading the fluorescence intensity of each well with a plate reader (excitation, 544 nm; Emission 595 nm). The fluorescent signal is linear to the number of living cells.

MDA-MB-231 cells = assay: alamarBlue cell proliferation (cytotoxicity) assay, MDA-MB-231; type: cell-based; details: 100 nM, 2 days incubation
Description: as §1

MCF-7 cells = assay: alamarBlue cell proliferation (cytotoxicity) assay, MCF-7; type: cell-based; details: 100 nM, 2 days incubation
Description: as §1

HuMEC cells = assay: alamarBlue cell proliferation (cytotoxicity) assay, HuMEC; type: cell-based; details: 100 nM, 2 days incubation
Description: as §1

[1] = via oral administration; cited from earlier work
tumor IDO expression = target: T1, tumor IDO expression (Mus musculus, UniProt P28776); assay: microPET/CT imaging of CLL mouse model versus wild-type mouse; type: in vivo; details: imaged 1 hour after i.p. injection of the probe; CLL tumor mice vs wild-type mice
T1 construct: from tissue; host or cells: living CLL tumor mice (whole-animal microPET/CT)
T1 sequence (P28776 whole entry): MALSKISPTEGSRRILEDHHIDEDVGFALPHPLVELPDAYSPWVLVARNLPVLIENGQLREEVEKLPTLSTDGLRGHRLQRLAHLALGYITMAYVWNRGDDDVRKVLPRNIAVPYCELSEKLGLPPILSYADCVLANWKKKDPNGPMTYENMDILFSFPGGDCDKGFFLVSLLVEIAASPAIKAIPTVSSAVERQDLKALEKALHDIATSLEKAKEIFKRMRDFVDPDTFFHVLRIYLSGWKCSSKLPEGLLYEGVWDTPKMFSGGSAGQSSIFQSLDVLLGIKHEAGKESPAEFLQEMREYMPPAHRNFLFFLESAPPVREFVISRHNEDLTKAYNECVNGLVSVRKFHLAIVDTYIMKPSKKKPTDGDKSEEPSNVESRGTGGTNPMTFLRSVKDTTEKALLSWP
Description: Mice were imaged 1 hour after i.p. injection of the probe.

IDO, sequence (P14902 whole entry): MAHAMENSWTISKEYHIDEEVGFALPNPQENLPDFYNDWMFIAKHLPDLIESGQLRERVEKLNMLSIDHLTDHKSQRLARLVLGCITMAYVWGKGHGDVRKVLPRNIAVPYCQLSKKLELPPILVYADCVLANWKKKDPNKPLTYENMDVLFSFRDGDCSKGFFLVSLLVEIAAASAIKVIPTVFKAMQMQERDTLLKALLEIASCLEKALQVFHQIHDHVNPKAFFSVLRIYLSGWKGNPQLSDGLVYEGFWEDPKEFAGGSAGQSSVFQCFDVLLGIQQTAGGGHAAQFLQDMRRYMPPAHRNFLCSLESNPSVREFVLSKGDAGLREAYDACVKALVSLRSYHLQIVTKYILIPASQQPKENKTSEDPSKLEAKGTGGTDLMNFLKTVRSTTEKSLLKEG

## ON=C(Nc1ccc(F)c(Cl)c1)c1nonc1NCCF [IDO4-9]
IDO
  Inhibition of IDO activity: inhibited
Hela cells
  Cytotoxicity: no cytotoxicity
MDA-MB-231 cells
  Cytotoxicity: no cytotoxicity
MCF-7 cells
  Cytotoxicity: no cytotoxicity
HuMEC cells
  Cytotoxicity: no cytotoxicity

## Nc1nonc1C(=NO)Nc1ccc(F)c(Cl)c1 [IDO5L, 4-Amino-N-(3-chloro-4-fluorophenyl)-N′-hydroxy-1,2,5-oxadiazole-3-carboximidamide]
IDO
  Inhibition of IDO activity: inhibited
Hela cells
  Cytotoxicity: no cytotoxicity
MDA-MB-231 cells
  Cytotoxicity: no cytotoxicity
MCF-7 cells
  Cytotoxicity: no cytotoxicity
HuMEC cells
  Cytotoxicity: no cytotoxicity
[1]
  t½ (clearance rate): < 30 min

## O=C(Cc1ccc(F)cc1)Nc1nonc1/C(=N/O)Nc1ccc(F)c(Cl)c1 [IDO5]
IDO
  Inhibition of IDO activity: inhibited

## O=C(Nc1nonc1/C(=N/O)Nc1ccc(F)c(Cl)c1)c1ccc(F)cc1 [IDO6]
IDO
  Inhibition of IDO activity: inhibited
Hela cells
  Cytotoxicity: no cytotoxicity
MDA-MB-231 cells
  Cytotoxicity: no cytotoxicity
MCF-7 cells
  Cytotoxicity: no cytotoxicity
HuMEC cells
  Cytotoxicity: no cytotoxicity

## O/N=C(\Nc1ccc(F)c(Cl)c1)c1nonc1NCCO/N=C\c1ccc(F)cc1 [IDO7]
IDO
  Inhibition of IDO activity: inhibited

## Nc1nonc1/C(=N/O)Nc1ccc([18F])c(Cl)c1 [^18F-IDO5L, [18F] 4-amino-N-(3-chloro-4-fluorophenyl)-N′-hydroxy-1,2,5-oxadiazole-3-carboximidamide]
Tumor IDO expression
  microPET/CT detection of tumor IDO expression: distinguishes IDO-positive chronic lymphocytic leukemia (CLL) mouse model and wild-type mouse in vivo
